“And” between values parts separate entries of the source, which are not always exact repeats. Identical values can stand only once.
Experiments:
[1] = Average % total dose in urine samples of dogs (Table II); type: in vivo, dog; settings: mean
Source text: The diastereomeric ^99m Tc complexes formed by reduction of pertechnetate in the presence of (2-benzoylthioacetyl)- glycyl-(S-benzoyl)-cysteine methyl ester (compound XVI) and N-2-(benzoylthio)ethyl)-N'-1-carbomethoxy-(2-benzoylthio)ethyl]oxamide (compound XXXI) were synthesized and separated by high pressure liquid chromatography. The two fractions collected from the products of synthesis in each case were denoted (XVIA), (XVIB), (XXXIA), and (XXXIB), respectively.
Samples of each fraction were mixed with appropriate amounts of ^131 I-OIH and coinjected into normal dogs placed under a gamma camera. Images were recorded at 1, 5, 10, 15, 20, 25, 30 and 35 minutes after administration. The initial image at one minute was used to collect 750,000 counts. All subsequent images were exposed for the same length of time as this first image, and the number of counts noted. Immediately after each count, a urine sample was drawn from the bladder via a indwelling catheter, and the ^99m Tc ANd ^131 I activity determined using an ionization chamber. In this way, the counts collected in the camera images cound be related to absolute activity levels (mCi or μCi). The animals were then observed until the urine samples were free of ^99m Tc.
In Table II can be seen the average % total dose valus observed in the urine samples collected at each time point. Also quoted in parentheses are the standard deviation and standard error of the mean.

[2] = Gamma camera: % total dose in bladder, 99mTc complexes coinjected with 131I-OIH into normal dogs (Tables I, III); type: in vivo, dog; set-up: Comparison of % total dose in bladder versus 131I-OIH, column headed by drawing 19 (± s.d.): unit not given here; settings: for % Total Dose In Bladder (gamma camera data) / pharmacokinetic behavior of the diastereomers / rate of excretion in the urine: normal dogs; for % Total Dose In Bladder (gamma camera data): single animals; for % total dose in bladder at 35 minutes, Average 99mTc (± s.d) / Comparison of % total dose in bladder versus 131I-OIH, column headed by drawing 19 (± s.d.): Table III; for % total dose in bladder at 35 minutes, Average 99mTc (± s.d): average of dogs; for Comparison of % total dose in bladder versus 131I-OIH, column headed by drawing 19 (± s.d.): dogs; for rate of excretion in the urine: versus 131I-OIH
Method: The two fractions collected from the products of synthesis in each case were denoted (XVIA), (XVIB), (XXXIA), and (XXXIB), respectively.
Images were recorded at 1, 5, 10, 15, 20, 25, 30 and 35 minutes after administration. The initial image at one minute was used to collect 750,000 counts. All subsequent images were exposed for the same length of time as this first image, and the number of counts noted. […] In this way, the counts collected in the camera images cound be related to absolute activity levels (mCi or μCi). The animals were then observed until the urine samples were free of ^99m Tc.
The values represent the calculated % total dose in the camera region of interest set over the bladder.

[3] = Biodistribution in Swiss Webster albino male mice, coinjected with 131I-OIH (Tables IV, V); type: in vivo, mouse; settings: for clearance into the urine: mice, versus 131I-OIH
Method: The diastereomers (XVIA) and (XVIB) were synthesized and then isolated by high pressure liquid chromatography as described previously, and their biodistributions obtained in groups in six Swiss Webster albino male mice. […] The mice were then placed in metabolic cages to collect urine. At 10 and 120 minutes after injection, the penis was ligated, the mice killed with chloroform vapor, and the organs disected.

[4] = in vivo; cited from earlier work
[5] = Table IV, 10 min, XVI A and 131I-OIH coinjected
[6] = Table IV, 120 min, XVI A and 131I-OIH coinjected
[7] = Table V, 10 min, XVI B and 131I-OIH coinjected
[8] = Table V, 120 min, XVI B and 131I-OIH coinjected

SMILES	Average % Total Dose in Urine Samples ([1]; 5 min post injection, 5 min)	Average % Total Dose in Urine Samples ([1]; 10 min post injection, 10 min)	Average % Total Dose in Urine Samples ([1]; 15 min post injection, 15 min)	Average % Total Dose in Urine Samples ([1]; 20 min post injection, 20 min)	Average % Total Dose in Urine Samples ([1]; 25 min post injection, 25 min)	Average % Total Dose in Urine Samples ([1]; 30 min post injection, 30 min)	Average % Total Dose in Urine Samples ([1]; 35 min post injection, 35 min)	% Total Dose In Bladder (gamma camera data) ([2]; 5 min post injection, 5 min)	% Total Dose In Bladder (gamma camera data) ([2]; 10 min post injection, 10 min)	% Total Dose In Bladder (gamma camera data) ([2]; 15 min post injection, 15 min)	% Total Dose In Bladder (gamma camera data) ([2]; 20 min post injection, 20 min)	% Total Dose In Bladder (gamma camera data) ([2]; 25 min post injection, 25 min)	% Total Dose In Bladder (gamma camera data) ([2]; 30 min post injection, 30 min)	% Total Dose In Bladder (gamma camera data) ([2]; 35 min post injection, 35 min)	% total dose in bladder at 35 minutes, Average 99mTc (± s.d) ([2]; 35 min)	Comparison of % total dose in bladder versus 131I-OIH, column headed by drawing 19 (± s.d.) ([2]; 35 min)	pharmacokinetic behavior of the diastereomers [2]	rate of excretion in the urine [2]	clearance into the urine [3]	other results
O=C(O)C1C[S][Tc-]23(=[O])[S]CC(=O)[N]2CC(=O)[N]13 (single isomer, unassigned) [XVIA]	8.67 % total dose	35.32 % total dose	48.11 % total dose	57.57 % total dose	63.25 % total dose	63.20 % total dose	67.50 % total dose	13.13 % total dose and 9.63 % total dose and 3.25 % total dose	38.08 % total dose and 34.15 % total dose and 33.73 % total dose	49.99 % total dose and 47.44 % total dose and 46.89 % total dose	57.29 % total dose and 59.01 % total dose and 56.40 % total dose	63.73 % total dose and 64.39 % total dose and 62.63 % total dose	63.67 % total dose and 66.95 % total dose and 58.77 % total dose	66.64 % total dose and 72.79 % total dose and 63.08 % total dose	67.50 % total dose	91.71	identical	comparable rates of excretion to each other and to OIH	cleared rapidly into the urine at comparable rates to each other and to the radiopharmaceutical ^131 I-OIH	Blood, % total dose per organ ± s.d. [3, 5]: 2.24 ± 0.33 % total dose per organ; Intestine, % total dose per organ ± s.d. [3, 5]: 1.07 ± 0.20 % total dose per organ; Kidneys, % total dose per organ ± s.d. [3, 5]: 3.19 ± 0.41 % total dose per organ; Liver, % total dose per organ ± s.d. [3, 5]: 1.39 ± 0.31 % total dose per organ; Stomach, % total dose per organ ± s.d. [3, 5]: 0.10 ± 0.01 % total dose per organ; Urine, % total dose ± s.d. [3, 5]: 65.01 ± 9.7 % total dose per organ; Blood, % total dose per organ ± s.d. [3, 6]: 0.05 ± 0.01 % total dose per organ; Intestine, % total dose per organ ± s.d. [3, 6]: 0.99 ± 0.59 % total dose per organ; Kidneys, % total dose per organ ± s.d. [3, 6]: 0.11 ± 0.04 % total dose per organ; Liver, % total dose per organ ± s.d. [3, 6]: 0.19 ± 0.03 % total dose per organ; Stomach, % total dose per organ ± s.d. [3, 6]: 0.21 ± 0.47 % total dose per organ; Urine, % total dose ± s.d. [3, 6]: 89.87 ± 2.70 % total dose per organ
O=C([O-])CN(CCN(CC(=O)[O-])CC(=O)[O-])CCN(CC(=O)[O-])CC(=O)[O-].[99Tc+4] [Compound 99mTc-DTPA]																				route of excretion [4]: excreted exclusively by glomerular filtration
O=C(O)C1C[S][Tc-]23(=[O])[S]CC[N]2C(=O)C(=O)[N]13 (single isomer, unassigned) [XXXIB]	13.56 % total dose	31.40 % total dose	42.13 % total dose	51.00 % total dose	57.23 % total dose	60.60 % total dose	62.93 % total dose	15.45 % total dose and 12.59 % total dose and 12.63 % total dose	37.76 % total dose and 28.47 % total dose and 27.98 % total dose	49.26 % total dose and 41.85 % total dose and 35.28 % total dose	61.08 % total dose and 48.71 % total dose and 43.22 % total dose	67.47 % total dose and 55.87 % total dose and 48.35 % total dose	70.23 % total dose and 60.72 % total dose and 50.84 % total dose	69.76 % total dose and 61.09 % total dose and 57.93 % total dose	62.93 % total dose	77.80		a significant difference exists between (XXXIA) and (XXXIB)		
[O]=[Tc](=[O])(=[O])[O-] [pertechnetate]																				absolute concentration in the renal parenchyma [4]: low; filtered activity reabsorbed by the renal tubules [4]: about 86%; urinary excretion [4]: relatively slow
O=C(O)C1C[S][Tc-]23(=[O])[S]CC(=O)[N]2CC(=O)[N]13 (single isomer, unassigned) [XVIB]	13.98 % total dose	32.94 % total dose	44.29 % total dose	51.40 % total dose	56.34 % total dose	62.55 % total dose	66.44 % total dose	12.31 % total dose and 10.03 % total dose and 19.60 % total dose	28.53 % total dose and 33.78 % total dose and 36.51 % total dose	39.47 % total dose and 45.88 % total dose and 47.52 % total dose	45.09 % total dose and 53.55 % total dose and 55.57 % total dose	48.09 % total dose and 60.94 % total dose and 59.98 % total dose	53.05 % total dose and 64.60 % total dose and 70.00 % total dose	54.63 % total dose and 73.12 % total dose and 71.57 % total dose	66.44 % total dose	92.25	identical	comparable rates of excretion to each other and to OIH	cleared rapidly into the urine at comparable rates to each other and to the radiopharmaceutical ^131 I-OIH	Blood, % total dose per organ ± s.d. [3, 7]: 1.47 ± 0.72 % total dose per organ; Intestine, % total dose per organ ± s.d. [3, 7]: 0.48 ± 0.18 % total dose per organ; Kidneys, % total dose per organ ± s.d. [3, 7]: 4.41 ± 3.6 % total dose per organ; Liver, % total dose per organ ± s.d. [3, 7]: 0.79 ± 0.49 % total dose per organ; Stomach, % total dose per organ ± s.d. [3, 7]: 0.06 ± 0.03 % total dose per organ; Urine, % total dose ± s.d. [3, 7]: 79.32 ± 5.1 % total dose per organ; Blood, % total dose per organ ± s.d. [3, 8]: 0.13 ± 0.10 % total dose per organ; Intestine, % total dose per organ ± s.d. [3, 8]: 0.40 ± 0.17 % total dose per organ; Kidneys, % total dose per organ ± s.d. [3, 8]: 0.08 ± 0.07 % total dose per organ; Liver, % total dose per organ ± s.d. [3, 8]: 0.11 ± 0.06 % total dose per organ; Stomach, % total dose per organ ± s.d. [3, 8]: 0.07 ± 0.12 % total dose per organ; Urine, % total dose ± s.d. [3, 8]: 91.47 ± 1.1 % total dose per organ
O=C(O)C1C[S][Tc-]23(=[O])[S]CC[N]2C(=O)C(=O)[N]13 (single isomer, unassigned) [XXXIA]	3.56 % total dose	12.52 % total dose	18.25 % total dose	24.10 % total dose	28.62 % total dose	33.63 % total dose	35.89 % total dose	5.76 % total dose and 4.12 % total dose and 0.81 % total dose	15.30 % total dose and 12.39 % total dose and 9.87 % total dose	22.26 % total dose and 15.99 % total dose and 16.51 % total dose	28.21 % total dose and 21.59 % total dose and 22.50 % total dose	32.68 % total dose and 25.47 % total dose and 27.72 % total dose	38.08 % total dose and 30.43 % total dose and 32.34 % total dose	41.57 % total dose and 31.19 % total dose and 34.90 % total dose	35.89 % total dose	46.80		a significant difference exists between (XXXIA) and (XXXIB)		

From patent publication US4673562A, “Bisamide bisthiol compounds useful for making technetium radiodiagnostic renal agents” (The Children's Medical Center Corporation, priority 1983, dated 1987)
